# Source: ChEMBL document CHEMBL5543108, “Structure-based design and synthesis of BML284 derivatives: A novel class of colchicine-site noncovalent tubulin degradation agents” (Eur J Med Chem, 2024)
# What was measured:
# HeLa = assay: Antiproliferative activity against human HeLa cells assessed as reduction in cell viability measured after 72 hrs; type: functional, cell-based
# A2780S [1] = assay: Antiproliferative activity against human A2780S cells assessed as reduction in cell viability measured after 72 hrs; type: functional, cell-based
# A549 = assay: Antiproliferative activity against human A549 cells assessed as reduction in cell viability measured after 72 hrs; type: functional, cell-based; conditions: A549, 72 h
# A549/TR = assay: Antiproliferative activity against paclitaxel resistant human A549T cells assessed as reduction in cell viability measured after 72 hrs; type: functional, cell-based
# NCI/ADR-RES = assay: Antiproliferative activity against human MCF7ADR cells assessed as reduction in cell viability measured after 72 hrs; type: functional, cell-based
# [2] = Selectivity ratio of IC50 for human MCF7ADR cells to IC50 for human MCF7; type: toxicity
# A2780S [3] = assay: Induction of cell cycle arrest in human A2780S cells assessed as accumulation of cells at G0/G1 phase at 3 nM measured after 24 hrs by propidium iodide staining based analysis (reference value: 51.71%); type: functional
# A2780S [4] = assay: Induction of cell cycle arrest in human A2780S cells assessed as accumulation of cells at G0/G1 phase at 10 nM measured after 24 hrs by propidium iodide staining based analysis (reference value: 51.71%); type: functional
# A2780S [5] = assay: Induction of cell cycle arrest in human A2780S cells assessed as accumulation of cells at G0/G1 phase at 100 nM measured after 24 hrs by propidium iodide staining based analysis (reference value: 51.71%); type: functional
# A2780S [6] = assay: Induction of cell cycle arrest in human A2780S cells assessed as accumulation of cells at G0/G1 phase at 300 nM measured after 24 hrs by propidium iodide staining based analysis (reference value: 51.71%); type: functional
# A2780S [7] = assay: Induction of cell cycle arrest in human A2780S cells assessed as accumulation of cells at S phase at 3 nM measured after 24 hrs by propidium iodide staining based analysis (reference value: 29.85%); type: functional
# A2780S [8] = assay: Induction of cell cycle arrest in human A2780S cells assessed as accumulation of cells at S phase at 30 nM measured after 24 hrs by propidium iodide staining based analysis (reference value: 29.85%); type: functional
# A2780S [9] = assay: Induction of cell cycle arrest in human A2780S cells assessed as accumulation of cells at S phase at 100 nM measured after 24 hrs by propidium iodide staining based analysis (reference value: 29.85%); type: functional
# A2780/Taxol [10] = assay: Induction of cell cycle arrest in human A2780T cells assessed as accumulation of cells at G0/G1 phase at 3 nM measured after 24 hrs by propidium iodide staining based analysis (reference value: 46.141%); type: functional
# A2780/Taxol [11] = assay: Induction of cell cycle arrest in human A2780T cells assessed as accumulation of cells at G0/G1 phase at 10 nM measured after 24 hrs by propidium iodide staining based analysis (reference value: 46.141%); type: functional
# A2780/Taxol [12] = assay: Induction of cell cycle arrest in human A2780T cells assessed as accumulation of cells at G0/G1 phase at 100 nM measured after 24 hrs by propidium iodide staining based analysis (reference value: 46.141%); type: functional
# A2780/Taxol [13] = assay: Induction of cell cycle arrest in human A2780T cells assessed as accumulation of cells at G2/M phase at 30 nM measured after 24 hrs by propidium iodide staining based analysis (reference value: 24.13%); type: functional
# A2780/Taxol [14] = assay: Induction of cell cycle arrest in human A2780T cells assessed as accumulation of cells at G2/M phase at 100 nM measured after 24 hrs by propidium iodide staining based analysis (reference value: 24.13%); type: functional
# A2780/Taxol [15] = assay: Induction of cell cycle arrest in human A2780T cells assessed as accumulation of cells at G2/M phase at 300 nM measured after 24 hrs by propidium iodide staining based analysis (reference value: 24.13%); type: functional
# A2780/Taxol [16] = assay: Induction of cell cycle arrest in human A2780T cells assessed as accumulation of cells at S phase at 10 nM measured after 24 hrs by propidium iodide staining based analysis (reference value: 29.73%); type: functional
# A2780/Taxol [17] = assay: Induction of cell cycle arrest in human A2780T cells assessed as accumulation of cells at S phase at 30 nM measured after 24 hrs by propidium iodide staining based analysis (reference value: 29.73%); type: functional
# A2780S [18] = assay: Induction of apoptosis in human A2780S cells assessed as total number of late apoptotic cells at 30 nM measured after 48 hrs by Annexin-V-FITC and PI staining based flow cytometry analysis (reference value: 3.42%); type: functional
# A2780S [19] = assay: Induction of apoptosis in human A2780S cells assessed as total number of late apoptotic cells at 300 nM measured after 48 hrs by Annexin-V-FITC and PI staining based flow cytometry analysis (reference value: 3.42%); type: functional
# A2780/Taxol [20] = assay: Induction of apoptosis in human A2780T cells assessed as total number of late apoptotic cells at 300 nM measured after 48 hrs by Annexin-V-FITC and PI staining based flow cytometry analysis (reference value: 3.42%); type: functional
# A2780S [21] = assay: Antitumor activity against human A2780S cells xenografted in mouse model assessed as tumor growth inhibition at 30 mg/kg, iv administered every two days for 12 days relative to control; type: functional; conditions: 288 h, time 12 day, read-out: TGI
# A2780/Taxol [22] = assay: Antitumor activity against human A2780T cells xenografted in mouse model assessed as tumor growth inhibition at 10 mg/kg, iv administered every two days for 18 days relative to control; type: functional; conditions: 432 h, time 18 day, read-out: TGI
# A2780/Taxol [23] = assay: Antitumor activity against human A2780T cells xenografted in mouse model assessed as tumor growth inhibition at 40 mg/kg, iv administered every two days for 18 days relative to control; type: functional; conditions: 432 h, time 18 day, read-out: TGI
# [24] = Toxicity in mouse xenografted with human A2780T cells assessed as effect on body weight at 10 to 30 mg/kg, iv measured upto 18 days; type: organism-based, A2780/Taxol; conditions: in vivo, 432 h, dose 10-30 mg/kg, time < 18 day
# [25] = Volume of distribution at steady state in male Sprague-Dawley rat at 10 mg/kg, iv; type: ADME, organism-based; conditions: in vivo, read-out: Vdss
# [26] = AUC (0 to t) in male Sprague-Dawley rat at 10 mg/kg, iv; type: ADME, organism-based; conditions: in vivo
# [27] = Cmax in male Sprague-Dawley rat at 10 mg/kg, iv; type: ADME, organism-based; conditions: in vivo
# [28] = Bioavailability in male Sprague-Dawley rat at 10 mg/kg, iv; type: ADME, organism-based; conditions: in vivo
# [29] = Tmax in male Sprague-Dawley rat at 10 mg/kg, po; type: ADME, organism-based; conditions: in vivo
# [30] = Clearance in male Sprague-Dawley rat at 10 mg/kg, po; type: ADME, organism-based; conditions: in vivo
# [31] = Volume of distribution at steady state in male Sprague-Dawley rat at 10 mg/kg, po; type: ADME, organism-based; conditions: in vivo
# [32] = Cmax in male Sprague-Dawley rat at 10 mg/kg, po; type: ADME, organism-based; conditions: in vivo
# Tubulin (Homo sapiens) = Tubulin (Homo sapiens) (UniProt P68371+Q9H4B7+P0DPH7+P68366+Q13509+Q71U36+P04350+Q3ZCM7+P07437+P68363+Q9BQE3+Q6PEY2+Q13885+Q9BVA1+Q9BUF5); assay: Induction of tubulin degradation in human HeLa cells measured after 24 hrs by immunoblot analysis; type: cell-based; conditions: dose <= 50.0 µM
smiles,measurement,setting,value
COc1cccc(-c2cc(NCc3ccc4[nH]ccc4c3)nc(N)n2)c1,IC50,HeLa,50 nM
same,IC50,A2780S [1],18 nM
same,IC50,A549,34 nM
same,IC50,A549/TR,37 nM
same,IC50,NCI/ADR-RES,32 nM
same,Ratio IC50,[2],1.6
same,Activity,A2780S [3],47.48%
same,Activity,A2780S [4],48.57%
same,Activity,A2780S [5],20.38%
same,Activity,A2780S [6],1.54%
same,Activity,A2780S [7],29.35%
same,Activity,A2780S [8],28.02%
same,Activity,A2780S [9],37.17%
same,Activity,A2780/Taxol [10],50.87%
same,Activity,A2780/Taxol [11],46.48%
same,Activity,A2780/Taxol [12],7.72%
same,Activity,A2780/Taxol [13],20%
same,Activity,A2780/Taxol [14],83.16%
same,Activity,A2780/Taxol [15],83.98%
same,Activity,A2780/Taxol [16],32.91%
same,Activity,A2780/Taxol [17],35.74%
same,Activity,A2780S [18],5.29%
same,Activity,A2780S [19],15.57%
same,Activity,A2780/Taxol [20],15.57%
same,inhibition in vivo at 30 mg/kg,A2780S [21],79.4%
same,inhibition in vivo at 10 mg/kg,A2780/Taxol [22],52.2%
same,inhibition in vivo at 40 mg/kg,A2780/Taxol [23],82%
same,Activity,[24],Non-Toxic
same,Vd,[25],7.43 L/kg
same,AUC(0-t),[26],4270 ng·h/mL
same,Cmax,[27],2890 ng/mL
same,bioavailability,[28],10.5%
same,Tmax,[29],3.67 h
same,CL/F,[30],314 mL/min/kg
same,Vdss,[31],154.68 L/kg
same,Cmax,[32],77.9 ng/mL
same,Activity,Tubulin (Homo sapiens),Dose-Dependent Effect
